Each structure is given as a SMILES string. Where a name gives a salt, the structure may show the parent alone.

Test [1] has as its target T1, BACE1 (Homo sapiens, UniProt P56817). Description: Assay A: binding studies using SPR based methods, immobilised BACE1.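 Further: KD from a 1:1 kinetic fit (koff/kon) of real-time association and dissociation curves, or for fast binders from end-of-association equilibrium responses plotted against log concentration.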 On the set-up: 6his-tagged full length BACE 1 expressed in SF9 cells; 6His; made in house; host or cells: SF9 insect cells. As to conditions: CM5 chip, immobilised 6his-tagged full length BACE 1, acetate buffer pH 4.6, 4% DMSO.
The target in another test is T2, BACE2 (Homo sapiens, UniProt Q9Y5Z0).
T2 construct: BACE2 enzyme ectodomain (derived from plasmid “pET17b-T7-hu proBACE2”); T7 (N); made in house
T2 sequence (Q9Y5Z0 63-473 limits assumed): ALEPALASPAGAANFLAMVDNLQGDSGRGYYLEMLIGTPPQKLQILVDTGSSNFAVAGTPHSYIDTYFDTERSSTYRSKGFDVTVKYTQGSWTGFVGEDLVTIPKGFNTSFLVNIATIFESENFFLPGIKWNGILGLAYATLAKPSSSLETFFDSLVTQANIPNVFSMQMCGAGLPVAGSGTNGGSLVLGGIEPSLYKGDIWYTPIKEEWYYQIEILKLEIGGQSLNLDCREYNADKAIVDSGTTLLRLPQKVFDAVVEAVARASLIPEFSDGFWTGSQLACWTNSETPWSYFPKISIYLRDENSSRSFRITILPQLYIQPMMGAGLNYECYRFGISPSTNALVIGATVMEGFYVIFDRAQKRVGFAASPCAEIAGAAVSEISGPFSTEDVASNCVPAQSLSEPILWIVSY
The experiment in a line: Assay A: binding studies using SPR based methods, immobilised BACE2. As to conditions: CM5 chip, immobilised BACE2 enzyme ectodomain, acetate buffer pH 4.6, 4% DMSO. In general terms: SPR reads the build-up and loss of mass on a sensor chip optically.

In test [2] the target is T1, BACE1. Description: Cellular Abeta-lowering assay. Format: cell-based. On the set-up: endogenous in cells; host or cells: HEK293 stably transfected with human APP695 wt. As to conditions: HEK293 cells stably transfected with human APP wt (APP695), Aβ40 ELISA of supernatant after 18-20 hrs. For orientation: An ELISA detects its analyte on a solid surface through an enzyme-linked reagent.

T1 sequence (P56817 46-501): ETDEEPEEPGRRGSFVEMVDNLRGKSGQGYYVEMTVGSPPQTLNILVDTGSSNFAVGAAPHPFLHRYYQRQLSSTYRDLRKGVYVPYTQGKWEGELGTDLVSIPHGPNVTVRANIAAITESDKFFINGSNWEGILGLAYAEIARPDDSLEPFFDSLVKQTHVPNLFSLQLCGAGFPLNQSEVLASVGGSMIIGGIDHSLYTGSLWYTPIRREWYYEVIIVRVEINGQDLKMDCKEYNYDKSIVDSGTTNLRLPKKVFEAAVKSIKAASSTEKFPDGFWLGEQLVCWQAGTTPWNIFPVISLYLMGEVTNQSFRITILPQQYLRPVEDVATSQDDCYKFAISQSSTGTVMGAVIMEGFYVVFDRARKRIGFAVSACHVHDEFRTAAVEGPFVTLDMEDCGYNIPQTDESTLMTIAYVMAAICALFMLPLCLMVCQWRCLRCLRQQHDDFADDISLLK

In general, Kd refers to a measure of binding affinity in units of concentration. Read a low Kd as tighter binding. Turning to `CCC(C)c1cc(Cl)cnc1C(=O)Nc1ccc(F)c([C@]2(C)COCC(N)=N2)c1` (mixture of isomers) [Example 71, 3-((RS)-sec-butyl)-5-chloro-pyridine-2-carboxylic acid [3-((R)-5-amino-3-methyl-3,6-dihydro-2H-[1,4]oxazin-3-yl)-4-fluoro-phenyl]-amide hydrochloride], the Kd was 1.5 µM at BACE1 [1] and 6 µM on BACE2.
The matching figures for `C[C@@]1(c2cc(NC(=O)C(CC3CCCO3)C(F)(F)F)ccc2F)COCC(N)=N1` (mixture of isomers) [Example 85, (RS)—N-[3-((R)-5-amino-3-methyl-3,6-dihydro-2H-[1,4]oxazin-3-yl)-4-fluoro-phenyl]-3,3,3-trifluoro-2-[(RS)-1-(tetrahydro-furan-2-yl)methyl]-propionamide formate]: above 10 µM and 6.9 µM.
Turning to `C[C@@]1(c2cc(NC(=O)C3CCOC3)ccc2F)COCC(N)=N1` (mixture of isomers) [Example 96, (RS)-tetrahydro-furan-3-carboxylic acid [3-((R)-5-amino-3-methyl-3,6-dihydro-2H-[1,4]oxazin-3-yl)-4-fluoro-phenyl]-amide formate], the Kd is above 10 µM at BACE1 [1] and 6.1 µM at BACE2.
The matching figures for `CC1(c2cccc(NC(=O)c3ccc(Cl)cc3F)c2)COCC(N)=N1` (racemic) [Example 3, (RS)—N-[3-(5-amino-3-methyl-3,6-dihydro-2H-[1,4]oxazin-3-yl)-phenyl]-4-chloro-2-fluoro-benzamide]: 1.68 µM and 0.58 µM.
The matching figures for `CC1(c2cccc(NC(=O)c3cc(F)ccc3F)c2)COCC(N)=N1` (racemic) [Example 5, (RS)—N-[3-(5-amino-3-methyl-3,6-dihydro-2H-[1,4]oxazin-3-yl)-phenyl]-2,5-difluoro-benzamide]: 62.5 µM and 5.3 µM.
In the case of `Cc1nc(C(=O)Nc2cccc(C3(C)COCC(N)=N3)c2)cs1` (racemic) [Example 10, (RS)-2-methyl-thiazole-4-carboxylic acid [3-(5-amino-3-methyl-3,6-dihydro-2H-[1,4]oxazin-3-yl)-phenyl]-amide], the Kd turned out to be 3.3 µM at BACE1 [1] and 0.361 µM on BACE2.
The term IC50 denotes the concentration that inhibits the measured activity by half. As to `Cc1nc(C(=O)Nc2cccc(C3(C)COCC(N)=N3)c2)c(C)o1` (racemic) [Example 11, (RS)-2,5-dimethyl-oxazole-4-carboxylic acid [3-(5-amino-3-methyl-3,6-dihydro-2H-[1,4]oxazin-3-yl)-phenyl]-amide], the dissociation constant (Kd) came out at 0.49 µM at BACE1 [1] and 0.044 µM on BACE2. Besides, the half-inhibitory concentration (IC50) against BACE1 [2] was found to be 0.041 µM.
Take `CC1(c2cccc(NC(=O)c3ccn(CC(F)(F)F)n3)c2)COCC(N)=N1` (racemic) [Example 14, (RS)-1-(2,2,2-trifluoro-ethyl)-1H-pyrazole-3-carboxylic acid [3-(5-amino-3-methyl-3,6-dihydro-2H-[1,4]oxazin-3-yl)-phenyl]-amide]: the values for the Kd at BACE1 [1] and at BACE2 were 33 µM and 5.4 µM, respectively.
As for `Cn1nc(C(=O)Nc2cccc(C3(C)COCC(N)=N3)c2)c2ccccc21` (racemic) [Example 15, (RS)-1-methyl-1H-indazole-3-carboxylic acid [3-(5-amino-3-methyl-3,6-dihydro-2H-[1,4]oxazin-3-yl)-phenyl]-amide], the Kd on BACE1 [1] is 20.1 µM; at BACE2, 6.7 µM.
As to `CC1(c2cccc(NC(=O)c3cc4ccccn4n3)c2)COCC(N)=N1` (racemic) [Example 16, (RS)-Pyrazolo[1,5-a]pyridine-2-carboxylic acid [3-(5-amino-3-methyl-3,6-dihydro-2H-[1,4]oxazin-3-yl)-phenyl]-amide], the Kd is 1.41 µM at BACE1 [1] and 0.513 µM on BACE2.
With `NC1=NC(c2cc(NC(=O)c3ccc(OCC(F)(F)F)cn3)ccc2F)(C2CC2)COC1` (racemic) [Example 23, (RS)-5-(2,2,2-Trifluoro-ethoxy)-pyridine-2-carboxylic acid [3-(5-amino-3-cyclopropyl-3,6-dihydro-2H-[1,4]oxazin-3-yl)-4-fluoro-phenyl]-amide], the Kd at BACE1 [1] came out at 0.309 µM; on BACE2 it was 10.8 µM. In addition, the IC50 on BACE1 [2] worked out at 0.16 µM.
The matching figures for `CC1(c2cccc(NC(=O)c3ccc(OCC(F)(F)F)cn3)c2)COCC(N)=N1` (racemic) [Example 24, (RS)-5-(2,2,2-Trifluoro-ethoxy)-pyridine-2-carboxylic acid [3-(5-amino-3-methyl-3,6-dihydro-2H-[1,4]oxazin-3-yl)-phenyl]-amide hydrochloride]: 1.88 µM, 5.75 µM and 0.12 µM.
Consider `CC1(c2cccc(NC(=O)c3ncc(Cl)cc3F)c2)COCC(N)=N1` (racemic) [Example 68, hydrochloride], for which, on BACE1 [2], half-maximal inhibition (IC50) required 0.01 µM.
Same read-out and setting: the figure for `CC1(c2cccc(NC(=O)c3ccc(C#N)cn3)c2)COCC(N)=N1` (racemic) [Example 69, 5-cyano-pyridine-2-carboxylic acid [3-((RS)-5-amino-3-methyl-3,6-dihydro-2H-[1,4]oxazin-3-yl)-phenyl]-amide hydrochloride] is 0.009 µM.
For `CC1(c2cc(NC(=O)CC(F)(F)F)ccc2F)COCC(N)=N1` (racemic) [Example 79, (RS)—N-[3-(5-Amino-3-methyl-3,6-dihydro-2H-[1,4]oxazin-3-yl)-4-fluoro-phenyl]-3,3,3-trifluoro-propionamide], the Kd is 4 µM on BACE1 [1] and 4.9 µM on BACE2.
Consider `C[C@@]1(c2cc(NC(=O)c3ccc(Cl)cn3)ccc2F)CO[C@H](c2ccccc2)C(N)=N1` [Example 30, 5-Chloro-pyridine-2-carboxylic acid [3-((3R,6R)-5-amino-3-methyl-6-phenyl-3,6-dihydro-2H-[1,4]oxazin-3-yl)-4-fluoro-phenyl]-amide], for which inhibition against BACE1 [2] was half-maximal at 0.023 µM (IC50).
Same read-out and setting: the figure for `C[C@@]1(c2cc(NC(=O)c3ccc(Cl)cn3)ccc2F)CO[C@@H](c2ccccc2)C(N)=N1` [Example 31, 5-Chloro-pyridine-2-carboxylic acid [3-((3R,6S)-5-amino-3-methyl-6-phenyl-3,6-dihydro-2H-[1,4]oxazin-3-yl)-4-fluoro-phenyl]-amide] is 0.023 µM.
Consider `CC1(C)OCC(N)=N[C@]1(C)c1cc(NC(=O)C2CC2)ccc1F` [Example 54, cyclopropanecarboxylic acid [3-((R)-5-amino-2,2,3-trimethyl-3,6-dihydro-2H-[1,4]oxazin-3-yl)-4-fluoro-phenyl]-amide], for which the Kd on BACE1 [1] was above 10 µM; at BACE2 it was 6.1 µM.
As for `C[C@@]1(c2cc(NC(=O)C3CC(Cl)C3)ccc2F)COCC(N)=N1` (stereo partly drawn) [Example 58, 3-chloro-cyclobutanecarboxylic acid [3-((R)-5-amino-3-methyl-3,6-dihydro-2H-[1,4]oxazin-3-yl)-4-fluoro-phenyl]-amide], the dissociation constant (Kd) was above 10 µM on BACE1 [1] and 3.6 µM on BACE2.
Taken in the same sequence, the figures for `C[C@@]1(c2cc(NC(=O)C3CC(F)(F)C3)ccc2F)COCC(N)=N1` [Example 59, 3,3-difluoro-cyclobutanecarboxylic acid [3-((R)-5-amino-3-methyl-3,6-dihydro-2H-[1,4]oxazin-3-yl)-4-fluoro-phenyl]-amide] were 9.6 µM and 4 µM.
On to `C[C@@]1(c2cc(NC(=O)c3ncc(C#N)cc3Cl)ccc2F)COCC(N)=N1` [Example 67, 3-Chloro-5-cyano-pyridine-2-carboxylic acid [3-((R)-5-amino-3-methyl-3,6-dihydro-2H-[1,4]oxazin-3-yl)-4-fluoro-phenyl]-amide hydrochloride], for which the Kd was 0.011 µM at BACE1 [1] and 0.015 µM at BACE2.
As to `CCc1cc(Cl)cnc1C(=O)Nc1ccc(F)c([C@]2(C)COCC(N)=N2)c1` [Example 70, 5-chloro-3-ethyl-pyridine-2-carboxylic acid [3-((R)-5-amino-3-methyl-3,6-dihydro-2H-[1,4]oxazin-3-yl)-4-fluoro-phenyl]-amide hydrochloride], the Kd at BACE1 [1] turned out to be 1.1 µM; on BACE2, 0.045 µM.
With `COCC1(C(=O)Nc2ccc(F)c([C@]3(C)COCC(N)=N3)c2)CC1` [Example 86, 1-methoxymethyl-cyclopropanecarboxylic acid [3-((R)-5-amino-3-methyl-3,6-dihydro-2H-[1,4]oxazin-3-yl)-4-fluoro-phenyl]-amide formate], the Kd at BACE1 [1] is above 10 µM; at BACE2, 3.6 µM.
The matching figures for `CC(C)CC(=O)Nc1ccc(F)c([C@]2(C)COCC(N)=N2)c1` [Example 95, N-[3-((R)-5-amino-3-methyl-3,6-dihydro-2H-[1,4]oxazin-3-yl)-4-fluoro-phenyl]-3-methyl-butyramide formate]: above 10 µM and 3.6 µM.
The matching figures for `C[C@@]1(c2cc(NC=O)ccc2F)COCC(N)=N1` [Example 97, N-[3-((R)-5-Amino-3-methyl-3,6-dihydro-2H-[1,4]oxazin-3-yl)-4-fluoro-phenyl]-formamide formate]: above 10 µM and 1.76 µM.
